Results taken from ChEMBL document CHEMBL3124747, “Formosusin A, a novel specific inhibitor of mammalian DNA polymerase β from the fungus Paecilomyces formosus” (Bioorg Med Chem, 2014).
pIC50: −log10 of the molar value.

Tests used:
DNA polymerase eta = target: T1, DNA polymerase eta (Homo sapiens, UniProt Q9Y253); experiment: Inhibition of C-terminal His-6-tagged human DNA polymerase eta expressed in Escherichia coli assessed as inhibition of incorporation of dTTP into poly(dA)/oligo(dT)18 after 60 mins
T1 sequence (Q9Y253 whole entry): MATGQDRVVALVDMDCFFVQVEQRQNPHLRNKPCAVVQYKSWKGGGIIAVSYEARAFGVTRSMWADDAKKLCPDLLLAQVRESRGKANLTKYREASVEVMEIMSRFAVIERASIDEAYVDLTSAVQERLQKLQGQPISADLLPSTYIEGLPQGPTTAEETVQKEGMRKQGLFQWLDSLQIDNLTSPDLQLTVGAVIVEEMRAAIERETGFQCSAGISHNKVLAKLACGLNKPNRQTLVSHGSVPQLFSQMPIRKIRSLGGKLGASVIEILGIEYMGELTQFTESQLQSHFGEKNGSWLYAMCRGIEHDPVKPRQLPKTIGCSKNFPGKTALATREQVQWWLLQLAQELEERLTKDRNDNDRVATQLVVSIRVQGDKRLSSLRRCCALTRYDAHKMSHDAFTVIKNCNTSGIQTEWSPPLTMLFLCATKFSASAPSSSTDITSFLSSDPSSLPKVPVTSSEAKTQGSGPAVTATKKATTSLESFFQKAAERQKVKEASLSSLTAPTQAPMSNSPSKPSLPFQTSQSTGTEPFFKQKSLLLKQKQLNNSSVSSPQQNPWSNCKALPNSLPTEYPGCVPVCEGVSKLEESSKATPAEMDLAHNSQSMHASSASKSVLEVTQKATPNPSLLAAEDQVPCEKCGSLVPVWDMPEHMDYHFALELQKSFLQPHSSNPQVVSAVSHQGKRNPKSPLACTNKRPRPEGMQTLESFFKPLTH

[1] = target: DNA-directed DNA/RNA polymerase mu (Homo sapiens, UniProt Q9NP87); experiment: Inhibition of human His-tagged recombinant DNA polymerase mu expressed in Escherichia coli BL21 assessed as inhibition of incorporation of dTTP into poly(dA)/oligo(dT)18 after 60 mins
T7 RNA polymerase = T7 RNA polymerase (Enterobacteria phage T7, UniProt P00573); experiment: Inhibition of T7 RNA polymerase assessed as inhibition of incorporation of dTTP into poly(dA)/oligo(dT)18 after 60 mins; set-up: species or system Escherichia phage T7
[2] = Inhibition of Escherichia coli polymerase DNA polymerase 1 klenow fragment assessed as inhibition of incorporation of dTTP into poly(dA)/oligo(dT)18 after 60 mins
[3] = target: T2, DNA polymerase delta catalytic subunit (Drosophila melanogaster, UniProt P54358); experiment: Inhibition of fruit fly DNA polymerase delta assessed as inhibition of incorporation of dTTP into poly(dA)/oligo(dT)18 after 60 mins
T2 sequence (P54358 whole entry): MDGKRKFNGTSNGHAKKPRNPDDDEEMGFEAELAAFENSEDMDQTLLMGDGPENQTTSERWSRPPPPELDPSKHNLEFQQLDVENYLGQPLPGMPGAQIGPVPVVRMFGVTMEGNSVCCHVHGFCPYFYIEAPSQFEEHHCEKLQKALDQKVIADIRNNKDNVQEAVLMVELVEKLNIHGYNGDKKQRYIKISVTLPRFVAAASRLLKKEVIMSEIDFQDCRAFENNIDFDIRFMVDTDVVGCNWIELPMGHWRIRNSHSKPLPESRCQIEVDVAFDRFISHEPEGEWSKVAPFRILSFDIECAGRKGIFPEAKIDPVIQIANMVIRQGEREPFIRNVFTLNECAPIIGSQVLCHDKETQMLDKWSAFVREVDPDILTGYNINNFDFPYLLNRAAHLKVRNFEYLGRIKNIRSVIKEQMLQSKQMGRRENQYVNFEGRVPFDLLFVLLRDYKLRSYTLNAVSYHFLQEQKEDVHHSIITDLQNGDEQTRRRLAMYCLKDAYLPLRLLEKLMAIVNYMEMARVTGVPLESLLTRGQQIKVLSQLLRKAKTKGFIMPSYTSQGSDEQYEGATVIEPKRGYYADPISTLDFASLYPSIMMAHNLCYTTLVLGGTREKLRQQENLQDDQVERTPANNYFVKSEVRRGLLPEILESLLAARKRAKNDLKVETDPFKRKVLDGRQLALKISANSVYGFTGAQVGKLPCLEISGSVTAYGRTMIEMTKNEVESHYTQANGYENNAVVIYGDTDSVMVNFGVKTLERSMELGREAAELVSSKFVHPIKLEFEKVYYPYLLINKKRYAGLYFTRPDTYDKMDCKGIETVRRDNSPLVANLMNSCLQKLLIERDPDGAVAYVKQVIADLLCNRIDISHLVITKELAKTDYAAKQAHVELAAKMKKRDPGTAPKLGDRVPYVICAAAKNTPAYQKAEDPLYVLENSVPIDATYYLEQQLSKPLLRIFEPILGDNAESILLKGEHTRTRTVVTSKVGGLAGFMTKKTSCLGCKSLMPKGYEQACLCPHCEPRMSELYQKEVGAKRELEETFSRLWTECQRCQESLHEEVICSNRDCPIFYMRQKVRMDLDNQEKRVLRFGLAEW

DNA polymerase kappa = target: T3, DNA polymerase kappa (Homo sapiens, UniProt Q9UBT6); experiment: Inhibition of C-terminal His-6-tagged human DNA polymerase kappa expressed in Escherichia coli assessed as inhibition of incorporation of dTTP into poly(dA)/oligo(dT)18 after 60 mins
T3 sequence (Q9UBT6 whole entry): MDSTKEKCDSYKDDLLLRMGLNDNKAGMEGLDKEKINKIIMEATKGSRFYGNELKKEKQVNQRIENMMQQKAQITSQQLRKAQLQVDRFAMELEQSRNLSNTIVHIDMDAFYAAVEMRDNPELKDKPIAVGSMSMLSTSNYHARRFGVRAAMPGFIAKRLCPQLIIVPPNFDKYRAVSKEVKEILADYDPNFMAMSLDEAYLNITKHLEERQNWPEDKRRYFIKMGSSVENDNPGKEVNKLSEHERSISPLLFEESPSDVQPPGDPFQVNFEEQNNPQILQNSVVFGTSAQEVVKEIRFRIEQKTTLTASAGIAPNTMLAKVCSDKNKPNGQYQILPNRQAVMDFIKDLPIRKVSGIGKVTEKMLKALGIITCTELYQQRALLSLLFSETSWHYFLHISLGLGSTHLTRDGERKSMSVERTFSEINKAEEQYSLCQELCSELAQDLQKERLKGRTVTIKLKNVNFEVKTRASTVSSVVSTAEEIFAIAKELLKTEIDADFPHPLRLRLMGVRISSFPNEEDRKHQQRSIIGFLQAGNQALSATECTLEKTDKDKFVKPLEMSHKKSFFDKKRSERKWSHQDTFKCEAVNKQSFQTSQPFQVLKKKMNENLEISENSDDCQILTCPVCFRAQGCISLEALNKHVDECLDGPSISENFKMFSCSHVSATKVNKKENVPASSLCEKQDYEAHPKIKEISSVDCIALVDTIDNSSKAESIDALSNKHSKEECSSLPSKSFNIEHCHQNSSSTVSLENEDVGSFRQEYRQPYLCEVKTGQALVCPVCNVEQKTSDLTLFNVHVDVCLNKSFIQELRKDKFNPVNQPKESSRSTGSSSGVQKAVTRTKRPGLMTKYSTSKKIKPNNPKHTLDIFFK

Measured: pIC50

Sequence of DNA-directed DNA/RNA polymerase mu (Q9NP87 whole entry): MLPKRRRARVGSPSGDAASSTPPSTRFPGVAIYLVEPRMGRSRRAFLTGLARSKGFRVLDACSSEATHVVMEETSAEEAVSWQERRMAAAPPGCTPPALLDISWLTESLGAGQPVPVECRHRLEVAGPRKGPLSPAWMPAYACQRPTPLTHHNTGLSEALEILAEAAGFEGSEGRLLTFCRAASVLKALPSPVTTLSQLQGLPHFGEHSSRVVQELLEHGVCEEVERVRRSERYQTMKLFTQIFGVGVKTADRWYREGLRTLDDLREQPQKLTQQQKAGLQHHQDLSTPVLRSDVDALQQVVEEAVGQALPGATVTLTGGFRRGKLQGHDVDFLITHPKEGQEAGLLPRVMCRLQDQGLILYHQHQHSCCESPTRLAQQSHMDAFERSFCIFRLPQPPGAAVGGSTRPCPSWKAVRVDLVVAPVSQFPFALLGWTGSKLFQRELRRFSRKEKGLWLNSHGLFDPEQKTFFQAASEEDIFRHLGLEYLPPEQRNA
Sequence of T7 RNA polymerase (P00573 whole entry, the tested form may be a part): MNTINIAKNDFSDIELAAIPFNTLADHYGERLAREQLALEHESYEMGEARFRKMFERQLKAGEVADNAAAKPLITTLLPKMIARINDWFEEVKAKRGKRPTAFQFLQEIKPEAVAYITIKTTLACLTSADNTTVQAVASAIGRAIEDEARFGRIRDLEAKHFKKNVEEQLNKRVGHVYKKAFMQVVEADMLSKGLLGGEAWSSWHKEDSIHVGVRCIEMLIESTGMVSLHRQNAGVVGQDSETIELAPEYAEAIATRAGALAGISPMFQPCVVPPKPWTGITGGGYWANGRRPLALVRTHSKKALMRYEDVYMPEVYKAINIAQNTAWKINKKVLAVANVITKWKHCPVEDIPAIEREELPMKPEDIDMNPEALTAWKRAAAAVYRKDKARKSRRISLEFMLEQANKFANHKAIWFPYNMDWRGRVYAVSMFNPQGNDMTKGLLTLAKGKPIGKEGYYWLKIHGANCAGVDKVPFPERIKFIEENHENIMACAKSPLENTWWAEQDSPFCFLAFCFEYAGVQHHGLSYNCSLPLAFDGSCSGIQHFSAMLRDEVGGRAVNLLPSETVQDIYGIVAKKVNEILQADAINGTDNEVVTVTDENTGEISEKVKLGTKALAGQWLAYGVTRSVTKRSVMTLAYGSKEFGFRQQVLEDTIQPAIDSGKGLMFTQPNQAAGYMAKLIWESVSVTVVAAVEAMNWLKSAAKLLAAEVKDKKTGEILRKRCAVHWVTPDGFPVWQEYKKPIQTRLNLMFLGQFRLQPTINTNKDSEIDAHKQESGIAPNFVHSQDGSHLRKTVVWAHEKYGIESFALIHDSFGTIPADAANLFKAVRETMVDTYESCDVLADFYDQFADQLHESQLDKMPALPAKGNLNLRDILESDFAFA

CC(/C=C/CCC(=O)N1CCCC1=O)=C\C1CCCCO1 (centres undefined)
< 3.70: all assays above

CCCCC(=O)/C=C(C)/C=C/CCC(=O)N1CCCC1=O
< 3.70: all assays above

CCCC[C@@H](O)/C=C(C)/C=C/C=C/C(=O)N1CCCC1=O [PECILOCIN]
< 3.70: all assays above

CCCC[C@@H](O)/C=C(C)/C=C/C=C\C(=O)N1CCCC1=O
< 3.70: all assays above
